Laboratory results from ChEMBL document CHEMBL1201862, “PubChem BioAssay data set” (2004).
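Cultured in 96-well plates, cells were exposed to test compound for 48 hours across five concentrations. GI50 is the concentration that inhibits growth by half.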 The source made the active and inactive calls. Rule as the data show it: active = GI50 up to about 1.1 µM and inactive = higher.

What was measured:
Assay in all cases: NCI-60 cell line screen, 48 h
SK-MEL-5 = system: SK-MEL-5
DU-145 = system: DU-145
UO-31 = system: UO-31
IGROV-1 = system: IGROV-1
SW-620 = system: SW-620
ACHN = system: ACHN
SK-OV-3 = system: SK-OV-3
NCI-H460 = system: NCI-H460
MDA-MB-231 = system: MDA-MB-231
PC-3 = system: PC-3
SK-MEL-28 = system: SK-MEL-28
SF-539 = system: SF-539
SNB-19 = system: SNB-19
CCRF-CEM = system: CCRF-CEM
HCC 2998 = system: HCC 2998
MDA-MB-435 = system: MDA-MB-435
SN12C = system: SN12C
M14 = system: M14
NCI-H23 = system: NCI-H23
SR = system: SR

Compound	GI50 (SK-MEL-5)	GI50 (DU-145)	GI50 (UO-31)	GI50 (IGROV-1)	GI50 (SW-620)	GI50 (ACHN)	GI50 (SK-OV-3)	GI50 (NCI-H460)	GI50 (MDA-MB-231)	GI50 (PC-3)	GI50 (SK-MEL-28)	GI50 (SF-539)	GI50 (SNB-19)	GI50 (CCRF-CEM)	GI50 (HCC 2998)	GI50 (MDA-MB-435)	GI50 (SN12C)	GI50 (M14)	GI50 (NCI-H23)	GI50 (SR)
CS/C(=N\Nc1cnc2ccccc2n1)NS(=O)(=O)c1cc(C)c(Cl)cc1Cl	> 100 µM (inactive)	> 100 µM (inactive)	33.9 µM (inactive)	21.1 µM (inactive)	> 100 µM (inactive)	> 100 µM (inactive)	> 100 µM (inactive)	> 100 µM (inactive)	44.2 µM (inactive)	> 100 µM (inactive)	> 100 µM (inactive)	> 100 µM (inactive)	> 100 µM (inactive)	> 100 µM (inactive)	> 100 µM (inactive)	> 100 µM (inactive)	> 100 µM (inactive)	> 100 µM (inactive)	> 100 µM (inactive)	
Cc1ccc(C)n2c1nc1ccc3ccccc3c12	50.2 µM (inactive)	> 100 µM (inactive)	61 µM (inactive)	> 100 µM (inactive)	> 100 µM (inactive)	> 100 µM (inactive)	> 100 µM (inactive)	> 100 µM (inactive)		67.9 µM (inactive)	> 100 µM (inactive)	> 100 µM (inactive)	> 100 µM (inactive)	> 100 µM (inactive)	> 100 µM (inactive)	> 100 µM (inactive)	> 100 µM (inactive)	> 100 µM (inactive)	> 100 µM (inactive)	> 100 µM (inactive)
O=[N+]([O-])c1ccc(SN=S=NSc2cccc(SN=S=NSc3ccc([N+](=O)[O-])cc3)c2)cc1	28.4 µM (inactive)		23.8 µM (inactive)	39.8 µM (inactive)	20.4 µM (inactive)	42.3 µM (inactive)	> 100 µM (inactive)	31 µM (inactive)		16.6 µM (inactive)	35.7 µM (inactive)		38.5 µM (inactive)	6 µM (inactive)	> 100 µM (inactive)	25.2 µM (inactive)	12.4 µM (inactive)	37 µM (inactive)		26.8 µM (inactive)
CCCCCCCCCCCCCCCCCCNC(=S)N/C=C1\C(=O)Nc2ccccc2C1=O	24.2 µM (inactive)	16 µM (inactive)	15.5 µM (inactive)	5.83 µM (inactive)	19.5 µM (inactive)	16.4 µM (inactive)	19.2 µM (inactive)	16.1 µM (inactive)	14.9 µM (inactive)		16.5 µM (inactive)	19.7 µM (inactive)	17.3 µM (inactive)		16.3 µM (inactive)	19.5 µM (inactive)	22.4 µM (inactive)	18.3 µM (inactive)	18.9 µM (inactive)	
N#CC(C#N)=C(N)/C(C#N)=C/c1ccc2[nH]ccc2c1	> 100 µM (inactive)	> 100 µM (inactive)	14 µM (inactive)	> 100 µM (inactive)	> 100 µM (inactive)	> 100 µM (inactive)	> 100 µM (inactive)	> 100 µM (inactive)		> 100 µM (inactive)	> 100 µM (inactive)	> 100 µM (inactive)	> 100 µM (inactive)	> 100 µM (inactive)	> 100 µM (inactive)	> 100 µM (inactive)	> 100 µM (inactive)	> 100 µM (inactive)	> 100 µM (inactive)	> 100 µM (inactive)
OCC(O)COCn1nncc1Cn1ncc2c(SCc3ccccc3)ncnc21 (stereo not drawn)	> 100 µM (inactive)	> 100 µM (inactive)	> 100 µM (inactive)	> 100 µM (inactive)	> 100 µM (inactive)	> 100 µM (inactive)	> 100 µM (inactive)		> 100 µM (inactive)	> 100 µM (inactive)	> 100 µM (inactive)	> 100 µM (inactive)	> 100 µM (inactive)	> 100 µM (inactive)	> 100 µM (inactive)	> 100 µM (inactive)	> 100 µM (inactive)	> 100 µM (inactive)	> 100 µM (inactive)	
CSc1ncc2c(n1)C(C#N)C1Sc3ccccc3N1C2=O (stereo not drawn)	> 100 µM (inactive)	> 100 µM (inactive)	> 100 µM (inactive)	> 100 µM (inactive)	> 100 µM (inactive)	59.4 µM (inactive)	> 100 µM (inactive)	> 100 µM (inactive)	> 100 µM (inactive)		> 100 µM (inactive)	37.3 µM (inactive)	53.6 µM (inactive)			> 100 µM (inactive)	> 100 µM (inactive)	> 100 µM (inactive)	78 µM (inactive)	
Cc1cc(Br)cc(C)c1NC(=O)C(=O)Nn1c(S)nc2ccccc2c1=O	> 100 µM (inactive)		> 100 µM (inactive)	> 100 µM (inactive)	> 100 µM (inactive)	> 100 µM (inactive)	> 100 µM (inactive)	> 100 µM (inactive)	> 100 µM (inactive)	> 100 µM (inactive)	> 100 µM (inactive)	> 100 µM (inactive)	78.9 µM (inactive)	> 100 µM (inactive)	> 100 µM (inactive)	> 100 µM (inactive)	> 100 µM (inactive)	> 100 µM (inactive)	> 100 µM (inactive)	> 100 µM (inactive)
CO/C(=N\N=C\c1ccc(OC)cc1OC)c1ccncc1	> 10 µM (inactive)		> 10 µM (inactive)	> 10 µM (inactive)	> 10 µM (inactive)	> 10 µM (inactive)	> 10 µM (inactive)	> 10 µM (inactive)		> 10 µM (inactive)	> 10 µM (inactive)	> 10 µM (inactive)	> 10 µM (inactive)	> 10 µM (inactive)	> 10 µM (inactive)		> 10 µM (inactive)		> 10 µM (inactive)	> 10 µM (inactive)
COc1ccc2nc(N/N=C/c3sccc3C)cc(C)c2c1	12.9 µM (inactive)	19.4 µM (inactive)	15.1 µM (inactive)	15.1 µM (inactive)	20.8 µM (inactive)	16.3 µM (inactive)	13.2 µM (inactive)	13.2 µM (inactive)	0.406 µM (active)	17.1 µM (inactive)	18.1 µM (inactive)		29 µM (inactive)	19.5 µM (inactive)	17.5 µM (inactive)	14.1 µM (inactive)	19.4 µM (inactive)	11.9 µM (inactive)	10.1 µM (inactive)	
Cc1cc(C)n(-c2ccnc3cc(Cl)ccc23)n1	> 100 µM (inactive)		91.6 µM (inactive)	> 100 µM (inactive)	> 100 µM (inactive)	> 100 µM (inactive)	> 100 µM (inactive)	> 100 µM (inactive)			> 100 µM (inactive)	> 100 µM (inactive)	> 100 µM (inactive)	> 100 µM (inactive)	> 100 µM (inactive)		> 100 µM (inactive)	> 100 µM (inactive)	> 100 µM (inactive)	> 100 µM (inactive)
COC(=O)c1sc(=O)sc1SCc1cccc(CSc2sc(=O)sc2C(=O)OC)c1	> 100 µM (inactive)	92.3 µM (inactive)	64.6 µM (inactive)	30.7 µM (inactive)	> 100 µM (inactive)	30 µM (inactive)	22.7 µM (inactive)	35.1 µM (inactive)	24.9 µM (inactive)	29.2 µM (inactive)	55.8 µM (inactive)		22.3 µM (inactive)	50.5 µM (inactive)	53.7 µM (inactive)	60.1 µM (inactive)	39.7 µM (inactive)	36.4 µM (inactive)	52.6 µM (inactive)	
CCN(CC)CCn1nc(N)c2nc3ccccc3nc21			> 100 µM (inactive)	> 100 µM (inactive)	93.5 µM (inactive)	> 100 µM (inactive)	> 100 µM (inactive)	> 100 µM (inactive)		> 100 µM (inactive)	> 100 µM (inactive)	> 100 µM (inactive)	> 100 µM (inactive)	> 100 µM (inactive)	> 100 µM (inactive)	> 100 µM (inactive)	> 100 µM (inactive)	> 100 µM (inactive)	> 100 µM (inactive)	59.8 µM (inactive)
c1cn[nH]c1 [PYRAZOLE]	> 10 µM (inactive)		> 10 µM (inactive)	> 10 µM (inactive)	> 10 µM (inactive)	> 10 µM (inactive)	> 10 µM (inactive)	> 10 µM (inactive)		> 10 µM (inactive)	> 10 µM (inactive)	> 10 µM (inactive)	> 10 µM (inactive)	> 10 µM (inactive)	> 10 µM (inactive)	> 10 µM (inactive)	> 10 µM (inactive)		> 10 µM (inactive)	> 10 µM (inactive)
O=[N+]([O-])c1ccc(C2c3c(O)nc(O)nc3Oc3nc(O)nc(O)c32)cc1	> 100 µM (inactive)	> 100 µM (inactive)	> 100 µM (inactive)	> 100 µM (inactive)	> 100 µM (inactive)	> 100 µM (inactive)	> 100 µM (inactive)	> 100 µM (inactive)	> 100 µM (inactive)	> 100 µM (inactive)	> 100 µM (inactive)		> 100 µM (inactive)	13.8 µM (inactive)		> 100 µM (inactive)	> 100 µM (inactive)	> 100 µM (inactive)	> 100 µM (inactive)	
O=[As](O)(O)c1cc(/N=N/c2ccc(-c3ccc(/N=N/c4cc([As](=O)(O)O)c(O)cc4O)cc3)cc2)c(O)cc1O	> 88.1 µM (inactive)		> 100 µM (inactive)	> 100 µM (inactive)	> 100 µM (inactive)	> 100 µM (inactive)	> 100 µM (inactive)	> 100 µM (inactive)			> 100 µM (inactive)	> 74.1 µM (inactive)	> 100 µM (inactive)	> 45.8 µM (inactive)	> 100 µM (inactive)		> 100 µM (inactive)	> 53 µM (inactive)	> 100 µM (inactive)	> 100 µM (inactive)
